Tested on: Beet Armyworm (BAW) (Spodoptera exigua)
Assay: Bioassay on Beet Armyworm (BAW), 128-well diet tray assay
Type: in vivo
Settings: Table 3: Assay Results Part 1
Description: Certain molecules disclosed in this document were tested against BAW, CEW and CL using procedures described in the following examples. In the reporting of the results, the “BAW & CEW & CL Rating Table” was used (See Table Section).
Bioassays on BAW (Spodoptera exigua)
Bioassays on BAW were conducted using a 128-well diet tray assay. One to five second instar BAW larvae were placed in each well (3 mL) of the diet tray that had been previously filled with 1 mL of artificial diet to which 50 μg/cm^2 of the test compound (dissolved in 50 μL of 90:10 acetone-water mixture) had been applied (to each of eight wells) and then allowed to dry. Trays were covered with a clear self-adhesive cover, and held at 25° C., 14:10 light-dark for five to seven days. Percent mortality was recorded for the larvae in each well; activity in the eight wells was then averaged. The results are indicated in the tables entitled “Table 3: Assay Results Part 1” and “Table 4: Assay Results Part 2” (See Table Section).

O=C(NCc1ccc(/C=C/C(c2cc(Cl)c(Cl)c(Cl)c2)C(F)(F)F)cc1Br)C1CC1 (stereo not shown) [CC26]
BAW Rating: A (50-100)

O=C(CC(F)(F)F)NCc1ccc(/C=C/C(c2cc(Cl)c(Cl)c(Cl)c2)C(F)(F)F)cc1F (stereo not shown) [CC27]
BAW Rating: A (50-100)

O=C(NCc1ccc(/C=C/C(c2cc(Cl)c(Cl)c(Cl)c2)C(F)(F)F)cc1F)C1CC1 (stereo not shown) [CC28]
BAW Rating: A (50-100)

O=C(C1CC1)N(Cc1ccccn1)Cc1ccc(/C=C/C(c2cc(Cl)c(Cl)c(Cl)c2)C(F)(F)F)cc1C(F)(F)F (stereo not shown) [CC29, (E)-N-(Pyridin-2-ylmethyl)-N-(4-(4,4,4-trifluoro-3-(3,4,5-trichlorophenyl)but-1-enyl)-2-(trifluoromethyl)benzyl)cyclopropanecarboxamide]
BAW Rating: A (50-100)

CS(=O)(=O)CCC(=O)NCc1ccc(/C=C/C(c2cc(Cl)c(Cl)c(Cl)c2)C(F)(F)F)cc1Cl (stereo not shown) [CC30, (E)-N-(2-Chloro-4-(4,4,4-trifluoro-3-(3,4,5-trichlorophenyl)but-1-en-1-yl)benzyl)-3-(methylsulfonyl)propanamide]
BAW Rating: A (50-100)

CCNC(=O)NCc1ccc(/C=C/C(c2cc(Cl)cc(Cl)c2)C(F)(F)F)cc1Cl (stereo not shown) [CC31, (E)-1-(2-Chloro-4-(3-(3,5-dichlorophenyl)-4,4,4-trifluorobut-1-en-1-yl)benzyl)-3-ethylurea]
BAW Rating: B (More than 0-Less than 50)

CCNC(=O)NCc1ccc(/C=C/C(c2cc(Cl)c(Cl)c(Cl)c2)C(F)(F)F)cc1C(F)(F)F (stereo not shown) [CC32]
BAW Rating: A (50-100)

CCNC(=O)NCc1ccc(/C=C/C(c2cc(Cl)c(Cl)c(Cl)c2)C(F)(F)F)cc1Br (stereo not shown) [CC33]
BAW Rating: A (50-100)

O=C(NCc1ccc(/C=C/C(c2cc(Cl)c(Cl)c(Cl)c2)C(F)(F)F)cc1Cl)N1CCOCC1 (stereo not shown) [CC34]
BAW Rating: A (50-100)

CN(C)C(=O)NCc1ccc(/C=C/C(c2cc(Cl)c(Cl)c(Cl)c2)C(F)(F)F)cc1Cl (stereo not shown) [CC36, (E)-3-(2-Chloro-4-(4,4,4-trifluoro-3-(3,4,5-trichlorophenyl)but-1-en-1-yl)benzyl)-1,1-dimethylurea]
BAW Rating: A (50-100)

CCNC(=S)NCc1ccc(/C=C/C(c2cc(Cl)c(Cl)c(Cl)c2)C(F)(F)F)cc1Cl (stereo not shown) [CC37, (E)-1-(2-Chloro-4-(4,4,4-trifluoro-3-(3,4,5-trichlorophenyl)but-1-en-1-yl)benzyl)-3-ethylthiourea]
BAW Rating: A (50-100)

C=CCNC(=S)NCc1ccc(/C=C/C(c2cc(Cl)c(Cl)c(Cl)c2)C(F)(F)F)cc1Cl (stereo not shown) [CC38]
BAW Rating: A (50-100)

FC(F)(F)C(/C=C/c1ccc(CNc2ccccn2)c(Cl)c1)c1cc(Cl)c(Cl)c(Cl)c1 (stereo not shown) [CC43, (E)-N-(2-Chloro-4-(4,4,4-trifluoro-3-(3,4,5-trichlorophenyl)but-1-en-1-yl)benzyl)pyridin-2-amine]
BAW Rating: A (50-100)

O=C(CC(F)(F)F)NCc1ncc(/C=C/C(c2cc(Cl)c(Cl)c(Cl)c2)C(F)(F)F)cc1Cl (stereo not shown) [CC44, (E)-N-((3-Chloro-5-(4,4,4-trifluoro-3-(3,4,5-trichlorophenyl)-but-1-en-1-yl)pyridin-2-yl)methyl)-3,3,3-trifluoropropanamide]
BAW Rating: A (50-100)

O=C(NCc1ncc(/C=C/C(c2cc(Cl)c(Cl)c(Cl)c2)C(F)(F)F)cc1Cl)C1CC1 (stereo not shown) [CC45]
BAW Rating: A (50-100)

O=C(NNc1ccc(/C=C/C(c2cc(Cl)c(Cl)c(Cl)c2)C(F)(F)F)cc1)C1CC1 (stereo not shown) [CC50, (E)-N′-(4-(4,4,4-Trifluoro-3-(3,4,5-trichlorophenyl)but-1-en-1-yl)phenyl)cyclopropanecarbohydrazide]
BAW Rating: A (50-100)

O=C(CC(F)(F)F)NNc1ccc(/C=C/C(c2cc(Cl)c(Cl)c(Cl)c2)C(F)(F)F)cc1 (stereo not shown) [CC51]
BAW Rating: A (50-100)

O=C(NOc1ccc(/C=C/C(c2cc(Cl)c(Cl)c(Cl)c2)C(F)(F)F)cc1)C1CC1 (stereo not shown) [CC52, (E)-N-(4-(4,4,4-Trifluoro-3-(3,4,5-trichlorophenyl)but-1-en-1-yl)phenoxy)cyclopropanecarboxamide]
BAW Rating: A (50-100)

O=C(CC(F)(F)F)NCc1ccc(/C=C\C(c2cc(Cl)c(Cl)c(Cl)c2)C(F)(F)F)cc1 (stereo not shown) [CC54, (Z)-3,3,3-Trifluoro-N-(4-(4,4,4-trifluoro-3-(3,4,5-trichlorophenyl)but-1-en-1-yl)benzyl)propanamide]
BAW Rating: A (50-100)

FC(F)(F)C(/C=C/c1ccc(-n2cncn2)cc1)c1cc(Cl)cc(Cl)c1 (stereo not shown) [DC1, (E)-1-(4-(3-(3,5-Dichlorophenyl)-4,4,4-trifluorobut-1-en-1-yl)phenyl)-1H-1,2,4-triazole]
BAW Rating: A (50-100)

FC(F)(F)C(/C=C/c1ccc(-n2cncn2)cc1)c1ccccc1 (stereo not shown) [DC3]
BAW Rating: B (More than 0-Less than 50)

FC(F)(F)C(/C=C/c1ccc(-n2cncn2)cc1)c1ccc(Cl)cc1 (stereo not shown) [DC4]
BAW Rating: A (50-100)

Fc1ccc(C(/C=C/c2ccc(-n3cncn3)cc2)C(F)(F)F)cc1 (stereo not shown) [DC7]
BAW Rating: A (50-100)

Fc1cc(F)cc(C(/C=C/c2ccc(-n3cncn3)cc2)C(F)(F)F)c1 (stereo not shown) [DC8]
BAW Rating: A (50-100)

Cc1cc(C)cc(C(/C=C/c2ccc(-n3cncn3)cc2)C(F)(F)F)c1 (stereo not shown) [DC11]
BAW Rating: A (50-100)

FC(F)(F)C(/C=C/c1ccc(-n2cncn2)cc1)c1ccc(Cl)c(Cl)c1 (stereo not shown) [DC12]
BAW Rating: A (50-100)

FC(F)(F)c1cc(C(/C=C/c2ccc(-n3cncn3)cc2)C(F)(F)F)cc(C(F)(F)F)c1 (stereo not shown) [DC16]
BAW Rating: A (50-100)

COc1c(Cl)cc(C(/C=C/c2ccc(-n3cncn3)cc2)C(F)(F)F)cc1Cl (stereo not shown) [DC20]
BAW Rating: A (50-100)

N#Cc1cc(/C=C/C(c2cc(Cl)cc(C(F)(F)F)c2)C(F)(F)F)ccc1-n1cncn1 (stereo not shown) [DC33]
BAW Rating: A (50-100)

COc1c(Cl)cc(C(/C=C/c2ccc(-n3cncn3)c(C#N)c2)C(F)(F)F)cc1Cl (stereo not shown) [DC34]
BAW Rating: A (50-100)

N#Cc1cc(/C=C/C(c2cc(Cl)c(F)c(Cl)c2)C(F)(F)F)ccc1-n1cncn1 (stereo not shown) [DC35]
BAW Rating: A (50-100)

N#Cc1cc(/C=C/C(c2cc(Cl)cc(Cl)c2)C(F)(F)F)ccc1-n1cnc([N+](=O)[O-])n1 (stereo not shown) [DC37]
BAW Rating: A (50-100)

N#Cc1cc(/C=C/C(c2cc(Cl)cc(Cl)c2)C(F)(F)F)ccc1-n1cnc(N)n1 (stereo not shown) [DC38]
BAW Rating: A (50-100)

CC(=O)Nc1ncn(-c2ccc(/C=C/C(c3cc(Cl)cc(Cl)c3)C(F)(F)F)cc2C#N)n1 (stereo not shown) [DC39]
BAW Rating: A (50-100)

N#Cc1cc(/C=C/C(c2cc(Cl)c(Cl)c(Cl)c2)C(F)(F)F)ccc1-n1cnc([N+](=O)[O-])n1 (stereo not shown) [DC40, (E)-2-(3-Nitro-1H-1,2,4-triazol-1-yl)-5-(4,4,4-trifluoro-3-(3,4,5-trichlorophenyl)but-1-en-1-yl)benzonitrile]
BAW Rating: A (50-100)

N#Cc1cc(/C=C/C(c2cc(Cl)c(Cl)c(Cl)c2)C(F)(F)F)ccc1-n1cnc(N)n1 (stereo not shown) [DC41, (E)-2-(3-Amino-1H-1,2,4-triazol-1-yl)-5-(4,4,4-trifluoro-3-(3,4,5-trichlorophenyl)but-1-en-1-yl)benzonitrile]
BAW Rating: A (50-100)

N#Cc1cc(/C=C/C(c2cc(Cl)c(Cl)c(Cl)c2)C(F)(F)F)ccc1-n1cnc(N(C(=O)C2CC2)C(=O)C2CC2)n1 (stereo not shown) [DC42, (E)-N-(1-(2-Cyano-4-(4,4,4-trifluoro-3-(3,4,5-trichlorophenyl)but-1-en-1-yl)phenyl)-1H-1,2,4-triazol-3-yl)-N-(cyclopropanecarbonyl)cyclopropanecarboxamide]
BAW Rating: A (50-100)

N#Cc1cc(/C=C/C(c2cc(Cl)c(Cl)c(Cl)c2)C(F)(F)F)ccc1-n1cnc(NC(=O)C2CC2)n1 (stereo not shown) [DC43, (E)-N-(1-(2-Cyano-4-(4,4,4-trifluoro-3-(3,4,5-trichlorophenyl)but-1-en-1-yl)phenyl)-1H-1,2,4-triazol-3-yl)cyclopropanecarboxamide]
BAW Rating: A (50-100)

Cc1cc(/C=C/C(c2cc(Cl)cc(Cl)c2)C(F)(F)F)cc(C#N)c1-n1cncn1 (stereo not shown) [DC44]
BAW Rating: A (50-100)

Cc1cc(/C=C/C(c2cc(Cl)c(Cl)c(Cl)c2)C(F)(F)F)cc(C#N)c1-n1cncn1 (stereo not shown) [DC45]
BAW Rating: A (50-100)

N#Cc1cc(/C=C\C(c2cc(Cl)c(F)c(Cl)c2)C(F)(F)F)ccc1-n1cncn1 (stereo not shown) [DC46]
BAW Rating: A (50-100)

FC(F)(F)C(/C=C/c1ccc(-n2cncn2)c(Br)c1)c1cc(Cl)cc(Cl)c1 (stereo not shown) [DC47]
BAW Rating: A (50-100)

Fc1cc(/C=C/C(c2cc(Cl)cc(Cl)c2)C(F)(F)F)ccc1-n1cncn1 (stereo not shown) [DC48]
BAW Rating: A (50-100)

FC(F)(F)C(/C=C/c1ccc(-n2cncn2)c(Cl)c1)c1cc(Cl)c(Cl)c(Cl)c1 (stereo not shown) [DC49]
BAW Rating: A (50-100)

FC(F)(F)C(/C=C/c1ccc(-n2cncn2)c(Cl)c1)c1cc(Cl)cc(Cl)c1 (stereo not shown) [DC50]
BAW Rating: A (50-100)

FC(F)(F)c1cc(/C=C/C(c2cc(Cl)cc(Cl)c2)C(F)(F)F)ccc1-n1cncn1 (stereo not shown) [DC51]
BAW Rating: A (50-100)

CNc1cc(/C=C/C(c2cc(Cl)cc(Cl)c2)C(F)(F)F)ccc1-n1cncn1 (stereo not shown) [DC57, (E)-5-(3-(3,5-Dichlorophenyl)-4,4,4-trifluorobut-1-en-1-yl)-N-methyl-2-(1H-1,2,4-triazol-1-yl)aniline]
BAW Rating: A (50-100)

CCOC(=O)c1cc(/C=C/C(c2cc(Cl)cc(Cl)c2)C(F)(F)F)ccc1-n1cncn1 (stereo not shown) [DC60]
BAW Rating: A (50-100)

Cc1cc(/C=C/C(c2cc(Cl)cc(Cl)c2)C(F)(F)F)ccc1-n1cncn1 (stereo not shown) [DC62]
BAW Rating: A (50-100)

Cc1cc(/C=C/C(c2cc(Cl)c(Cl)c(Cl)c2)C(F)(F)F)ccc1-n1cncn1 (stereo not shown) [DC63]
BAW Rating: A (50-100)

FC(F)(F)C(/C=C/c1ccc(-n2cncn2)cc1Cl)c1cc(Cl)c(Cl)c(Cl)c1 (stereo not shown) [DC66]
BAW Rating: A (50-100)

FC(F)(F)C(/C=C/c1ccc(-n2cncn2)cc1Cl)c1cc(Cl)cc(Cl)c1 (stereo not shown) [DC67]
BAW Rating: A (50-100)

Source: patent US9212163B2, “Pesticidal compositions and processes related thereto” (Dow AgroSciences LLC, priority 2012, dated 2015)
